Reference: patent US10760052B2, “Method of inhibiting tau phosphorylation” (priority 2012, dated 2020)
Read-outs that look alike come from different tables or passages of the source.

Target: T1, mu opiate receptor (MOR) (Rattus norvegicus, UniProt P33535)
T1 construct: from tissue; host or cells: striatum (membrane preparation)
Assay type: biochemical

[1] = [35S]GTPγS binding to Gαo in striatal membranes, compound 0.1 μM
[2] = [35S]GTPγS binding to Gαo in striatal membranes, compound 1 μM
[3] = [35S]GTPγS binding to Gαo in striatal membranes, compound 1 μM plus 1 μM β-funaltrexamine (MOR antagonist)

T1 sequence (P33535 whole entry): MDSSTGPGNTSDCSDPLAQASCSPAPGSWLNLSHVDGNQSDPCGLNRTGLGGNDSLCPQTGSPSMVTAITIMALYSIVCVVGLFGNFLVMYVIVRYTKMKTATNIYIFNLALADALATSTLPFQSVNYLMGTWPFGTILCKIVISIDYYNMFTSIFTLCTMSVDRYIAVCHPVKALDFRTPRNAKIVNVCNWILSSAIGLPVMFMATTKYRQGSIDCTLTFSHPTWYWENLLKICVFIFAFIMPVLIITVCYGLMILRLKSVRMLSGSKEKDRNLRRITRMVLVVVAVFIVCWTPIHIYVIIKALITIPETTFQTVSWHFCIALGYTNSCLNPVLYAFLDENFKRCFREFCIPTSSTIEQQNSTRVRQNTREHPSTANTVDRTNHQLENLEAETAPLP

SMILES	% DAMGO (0.1 μM)	% DAMGO (1 μM)	% DAMGO + BFNA	Concentration of FLNA-Binding Compound as Agonist 0.1 μM [1]	Concentration of FLNA-Binding Compound as Agonist 1 μM [2]	Concentration of FLNA-Binding Compound as Agonist 1 μM + BFNA [3]	Concentration of FLNA-Binding Compound as Agonist 0.1 μM	Concentration of FLNA-Binding Compound as Agonist 1 μM	Concentration of FLNA-Binding Compound as Agonist 1 μM + BFNA	[35S]GTPγS binding, FLNA-Binding Compound as Agonist at 0.1 μM (0.1 μM compound, striatal membranes, Series C-2)	[35S]GTPγS binding, FLNA-Binding Compound as Agonist at 1 μM + BFNA (1 μM compound + 1 μM β-FNA (selective MOR antagonist), Series C-2)	[35S]GTPγS binding, FLNA-Binding Compound as Agonist at 1 μM (1 μM compound, striatal membranes, Series C-2)	[35S]GTPγS binding, FLNA-Binding Compound as Agonist at 0.1 μM	[35S]GTPγS binding, FLNA-Binding Compound as Agonist at 1 μM	[35S]GTPγS binding, FLNA-Binding Compound as Agonist at 1 μM + BFNA
O=S(=O)(c1ccc(F)c(F)c1)N1CCC2(CC1)OCCN2S(=O)(=O)c1ccc(F)c(F)c1 [Compound C0072]	100.3%	117.9%	194.5%	172.7%	259.1%	67.1%	–	–	–	–	–	–	–	–	–
O=S(=O)(c1ccc(Br)c(C(F)(F)F)c1)N1CCC2(CC1)OCCN2S(=O)(=O)c1ccc(Br)c(C(F)(F)F)c1 [Compound C0077]	109.5%	104.9%	621.4%	192.7%	265.4%	136.7%	–	–	–	–	–	–	–	–	–
COc1c2c(cc3c1C(CC(=O)/C=C/c1ccc(Cl)cc1)[N+](C)(C)CC3)OCO2 (stereo not drawn) [Compound B0019]	59.7%	96.0%	123.3%	101.0%	256.5%	81.4%	–	–	–	–	–	–	–	–	–
COc1cc(F)ccc1C(=O)CC1c2c(cc3c(c2OC)OCO3)CC[N+]1(C)C (stereo not drawn) [Compound B0007]	95.3%	86.1%	98.2%	168.3%	223.3%	64.5%	–	–	–	–	–	–	–	–	–
COc1c2c(cc3c1C(CC(=O)c1ccc(C#N)cc1)[N+](C)(C)CC3)OCO2 (stereo not drawn) [Compound B0001]	77.4%	74.9%	43.1%	128.2%	202.3%	28.0%	–	–	–	–	–	–	–	–	–
CC1CCC(C(C)C)C(OCC(O)CN2CCC(=O)CC2)C1 (stereo not drawn) [Compound A0060]	63.9%	68.6%	35.8%	99.7%	158.2%	14.3%	–	–	–	–	–	–	–	–	–
COc1ccc(OCC(O)CN2CC(C)OC(C)C2)cc1 (stereo not drawn) [Compound A0048]	119.1%	109.7%	226.3%	233.7%	302.9%	167.2%	–	–	–	–	–	–	–	–	–
CC1CCC(C(C)C)C(OCC(O)Cn2ccc3ccccc32)C1 (stereo not drawn) [Compound A0078]	124.9%	92.3%	274.2%	–	–	–	250.5%	289.9%	147.8%	–	–	–	–	–	–
OC(COc1ccc(Br)c(F)c1)CN1CCc2ccccc2C1 (stereo not drawn) [Compound A0057]	79.6%	83.3%	112.3%	124.2%	192.1%	44.8%	–	–	–	–	–	–	–	–	–
O=C1CN(Cc2ccccc2)C2(CCN(CC3CC3)CC2)N1 [Compound C0125M]	89.1%	78.6%	329.3%	–	–	–	–	–	–	168.6%	159.7%	195.2%	–	–	–
COc1ccc(S(=O)(=O)N2CCC3(OCCN3S(=O)(=O)c3ccc(OC)cc3)C3CCCCC32)cc1 (stereo not drawn) [Compound C0144M]	108.3%	90.8%	137.9%	186.3%	295.9%	125.9%	–	–	–	–	–	–	–	–	–
COc1ccc(C(=O)CC2c3c(cc4c(c3OC)OCO4)CC[N+]2(C)C)cc1C (stereo not drawn) [Compound B0021]	75.9%	104.7%	123.6%	126.9%	256.4%	42.9%	–	–	–	–	–	–	–	–	–
Nc1ccc(C(=O)N2CCC3(CC2)OCCN3S(=O)(=O)c2ccc(N)cc2)cc1 [Compound C0023]	89.5%	87.6%	44.5%	153.2%	233.7%	23.2%	–	–	–	–	–	–	–	–	–
O=S(=O)(c1csc2ccccc12)N1CCC2(CC1)OCCN2S(=O)(=O)c1csc2ccccc12 [Compound C0150M]	97.2%	129.8%	173.2%	167.1%	423.1%	93.4%	–	–	–	–	–	–	–	–	–
CC1CN(CC(O)COc2cccc(F)c2)CC(C)O1 (stereo not drawn) [Compound A0049]	118.4%	134.2%	144.9%	232.3%	370.3%	107.1%	–	–	–	–	–	–	–	–	–
CC(=O)c1ccc(S(=O)(=O)N2CCC3(CC2)OCCN3S(=O)(=O)c2ccc(C(C)=O)cc2)cc1 [Compound C0011]	126.8%	114.3%	36.5%	–	–	–	217.0%	305.0%	19.0%	–	–	–	217.0%	305.0%	19.0%
OC(COc1cccc(C(F)(F)F)c1)CN1CCc2ccccc2C1 (stereo not drawn) [Compound A0054]	44.4%	63.9%	348.9%	74.9%	159.2%	114.1%	–	–	–	–	–	–	–	–	–
O=S(=O)(c1ccc(Br)cc1Br)N1CCC2(CC1)OCCN2S(=O)(=O)c1ccc(Br)cc1Br [Compound C0070]	96.2%	95.9%	331.0%	165.6%	210.8%	114.2%	–	–	–	–	–	–	–	–	–
O=C(c1ccc([N+](=O)[O-])cc1)N1CCC2(CC1)OCCN2S(=O)(=O)c1ccc([N+](=O)[O-])cc1 [Compound C0033]	85.9%	80.6%	235.0%	134.5%	186.4%	76.6%	–	–	–	–	–	–	–	–	–
COc1ccc(C(=O)CC2c3c(cc4c(c3OC)OCO4)CC[N+]2(C)C)c(O)c1 (stereo not drawn) [Compound B0033]	77.6%	69.2%	95.4%	149.3%	188.9%	41.9%	–	–	–	–	–	–	–	–	–
COc1cc(OC)cc(C(=O)CC2c3c(cc4c(c3OC)OCO4)CC[N+]2(C)C)c1 (stereo not drawn) [Compound B0035]	109.8%	93.2%	142.4%	188.0%	248.7%	74.2%	–	–	–	–	–	–	–	–	–
OC(COc1ccc(Br)c(F)c1)CN1CCCCC1 (stereo not drawn) [Compound A0058]	45.3%	106.0%	150.1%	70.7%	244.3%	59.9%	–	–	–	–	–	–	–	–	–
